Values quoted from earlier work, collected in patent publication US20050014730A1, “Anti-fungal formulation of triterpene and essential oil” (priority 2003, published 2005).

C=C(C)[C@@H]1CC[C@]2(CO)CC[C@]3(C)[C@H](CC[C@@H]4[C@@]5(C)CC[C@H](O)C(C)(C)[C@@H]5CC[C@]43C)[C@@H]12 [betulin]
solubility of betulin in water: about 0.15 mg/l
